Laboratory results as given in patent US11395857B2, “Radiolabeled melanocortin 1 receptor-specific alpha-melanocyte-stimulating hormone analogues for imaging or therapy” (PROVINCIAL HEALTH SERVICES AUTHORITY, priority 2018, dated 2022).
Where two headings read alike, the source gives them in different places. Blank lines part the entries; values can stand above or below the compound they belong to.

How the values were obtained:
[1] = In vivo stability in mouse urine at 1 h p.i. (radio-HPLC); parameters: species or system C57BL/6J mice
Experimental: All animal experiments were conducted in according to the guidelines established by Canadian Council on Animal Care and approved by Animal Ethics Committee of the University of British Columbia. Mice were housed under pathogen-free conditions and kept on twelve hours light and twelve hours dark cycle in the Animal Research Centre, BC Cancer Research Centre, Vancouver, Canada. C57BL/6J mice were anesthetized by inhalation with 2% isoflurane in 2.0 L/min of oxygen, and approximately 4-6 MBq of [^68Ga]Ga-CCZ01099 or [^68Ga]Ga-CCZ01048 was injected intravenously. The mice were allowed to recover and roam freely in their cages. At 1 h post-injection (p.i.), the mice were euthanized by CO2 inhalation and their urine was collected and analyzed on HPLC for metabolite using the conditions described above. In vivo urine stability of [^68Ga]Ga-CCZ01099 and [^68Ga]Ga-CCZ01048 were 34.0±10.4% and ≥98.0% (n≥3), respectively.
The in vivo stability tests in mouse urine were performed as described in Example 1. […] With systematic reduction in the number of N-methylations for the αMSH analogues, a decrease in in vivo stability was observed.

SK-MEL-1 human melanoma = assay: SPECT/CT imaging of mice bearing SK-MEL-1 human melanoma; format: in vivo, NRG mice; details: 24 h p.i.
Experimental: SPECT/CT imaging experiments were conducted using the same conditions as described in Example 3. […] (FIG. 6).

B16F10 mouse melanoma = assay: Biodistribution of 177Lu-labeled αMSH analogues in mice bearing B16F10 mouse melanoma; format: in vivo, C57BL/6J mice; details: C57BL/6J mice, B16F10 melanoma
Experimental: (§1) The B16-F10 mouse melanoma cells were cultured and inoculated in mice as described in Example 1.
(§2) For biodistribution studies, approximately 1-2 MBq of ^177Lu-labeled αMSH analogues via tail vein under anesthesia. At 1, 4, 24, and 120 h p.i., the mice were euthanized by CO2 inhalation. Organs/tissues were harvested and the radioactivity was measured as described in Example 1.

[2] = as above; format: in vivo, C57BL/6J mice; details: mouse, iv, total radioactivity, C57BL/6J mice, B16F10 melanoma
Experimental: as §1, §2

In vivo urine stability, intact tracer [1]: 41.4 ± 3.9%
SMILES: CCCC[C@H](NC(=O)CN1CCC(NC(=O)CN2CCN(CC(=O)O)CCN(CC(=O)O)CCN(CC(=O)O)CC2)CC1)C(=O)N[C@H]1CC(=O)NCCCC[C@@H](C(N)=O)NC(=O)[C@H](Cc2c[nH]c3ccccc23)NC(=O)[C@H](CCCNC(=N)N)N(C)C(=O)[C@@H](Cc2ccccc2)NC(=O)[C@H](Cc2c[nH]cn2)NC1=O [[^68Ga]Ga-CCZ01114, metal not drawn]

Biodistribution, B16F10 tumour (B16F10 mouse melanoma; 1 h p.i.): 16.3 ± 3.75 % ID/g
Biodistribution, B16F10 tumour (B16F10 mouse melanoma; 4 h p.i.): 16.7 ± 3.86 % ID/g
Biodistribution, B16F10 tumour (B16F10 mouse melanoma; 24 h p.i.): 4.39 ± 1.36 % ID/g
Biodistribution, B16F10 tumour (B16F10 mouse melanoma; 120 h p.i.): 0.41 ± 0.21 % ID/g
Biodistribution, Blood (B16F10 mouse melanoma; 120 h p.i.): 0.00 ± 0.00 % ID/g
tissue uptake at 1 h ([2]; male, seminal glands, 1 h p.i., read-out: Biodistribution, Seminal glands): 0.16 ± 0.03 %ID/g
tissue uptake at 1 h ([2]; male, testes, 1 h p.i., read-out: Biodistribution, Testes): 0.27 ± 0.04 %ID/g
tissue uptake at 4 h ([2]; male, testes, 4 h p.i., read-out: Biodistribution, Testes): 0.16 ± 0.02 %ID/g
tissue uptake at 1 h ([2]; adrenal glands, 1 h p.i., read-out: Biodistribution, Adrenal glands): 0.38 ± 0.38 %ID/g
tissue uptake at 1 h ([2]; bone, 1 h p.i., read-out: Biodistribution, Bone): 0.19 ± 0.01 %ID/g
tissue uptake at 1 h ([2]; heart, 1 h p.i., read-out: Biodistribution, Heart): 0.18 ± 0.02 %ID/g
tissue uptake at 1 h ([2]; intestine, 1 h p.i., read-out: Biodistribution, Intestine): 0.33 ± 0.06 %ID/g
tissue uptake at 4 h ([2]; intestine, 4 h p.i., read-out: Biodistribution, Intestine): 0.49 ± 0.46 %ID/g
tissue uptake at 24 h ([2]; intestine, 24 h p.i., read-out: Biodistribution, Intestine): 0.27 ± 0.23 %ID/g
tissue uptake at 1 h ([2]; kidneys, 1 h p.i., read-out: Biodistribution, Kidneys): 5.36 ± 0.32 %ID/g
tissue uptake at 4 h ([2]; kidneys, 4 h p.i., read-out: Biodistribution, Kidneys): 4.89 ± 1.06 %ID/g
tissue uptake at 24 h ([2]; kidneys, 24 h p.i., read-out: Biodistribution, Kidneys): 1.78 ± 0.32 %ID/g
tissue uptake at 120 h ([2]; kidneys, 120 h p.i., read-out: Biodistribution, Kidneys): 0.36 ± 0.09 %ID/g
tissue uptake at 1 h ([2]; liver, 1 h p.i., read-out: Biodistribution, Liver): 0.54 ± 0.08 %ID/g
tissue uptake at 4 h ([2]; liver, 4 h p.i., read-out: Biodistribution, Liver): 0.48 ± 0.1 %ID/g
tissue uptake at 24 h ([2]; liver, 24 h p.i., read-out: Biodistribution, Liver): 0.34 ± 0.05 %ID/g
tissue uptake at 120 h ([2]; liver, 120 h p.i., read-out: Biodistribution, Liver): 0.16 ± 0.04 %ID/g
tissue uptake at 1 h ([2]; lungs, 1 h p.i., read-out: Biodistribution, Lungs): 0.73 ± 0.4 %ID/g
tissue uptake at 1 h ([2]; spleen, 1 h p.i., read-out: Biodistribution, Spleen): 0.29 ± 0.02 %ID/g
tissue uptake at 4 h ([2]; spleen, 4 h p.i., read-out: Biodistribution, Spleen): 0.22 ± 0.06 %ID/g
tissue uptake at 1 h ([2]; stomach, 1 h p.i., read-out: Biodistribution, Stomach): 0.59 ± 0.16 %ID/g
tissue uptake at 4 h ([2]; stomach, 4 h p.i., read-out: Biodistribution, Stomach): 0.56 ± 0.08 %ID/g
tissue uptake at 1 h ([2]; thyroid, 1 h p.i., read-out: Biodistribution, Thyroid): 2.57 ± 0.62 %ID/g
tissue uptake at 4 h ([2]; thyroid, 4 h p.i., read-out: Biodistribution, Thyroid): 2.16 ± 0.4 %ID/g
tissue uptake at 24 h ([2]; thyroid, 24 h p.i., read-out: Biodistribution, Thyroid): 1.24 ± 0.32 %ID/g
tissue to tissue ratio at 1 h ([2]; tumour/blood, 1 h p.i., read-out: Tumour/blood): 32.4 ± 7.58
tissue to tissue ratio at 4 h ([2]; tumour/blood, 4 h p.i., read-out: Tumour/blood): 206 ± 73.7
tissue to tissue ratio at 24 h ([2]; tumour/blood, 24 h p.i., read-out: Tumour/blood): 530 ± 45.1
tissue to tissue ratio at 120 h ([2]; tumour/blood, 120 h p.i., read-out: Tumour/blood): 233 ± 57.8
tissue to tissue ratio at 1 h ([2]; tumour/kidney, 1 h p.i., read-out: Tumour/kidney): 3.04 ± 0.63
tissue to tissue ratio at 4 h ([2]; tumour/kidney, 4 h p.i., read-out: Tumour/kidney): 3.65 ± 1.48
tissue to tissue ratio at 24 h ([2]; tumour/kidney, 24 h p.i., read-out: Tumour/kidney): 2.25 ± 0.15
tissue to tissue ratio at 120 h ([2]; tumour/kidney, 120 h p.i., read-out: Tumour/kidney): 1.14 ± 0.65
tissue to tissue ratio at 1 h ([2]; tumour/muscle, 1 h p.i., read-out: Tumour/muscle): 126 ± 34.1
tissue to tissue ratio at 4 h ([2]; tumour/muscle, 4 h p.i., read-out: Tumour/muscle): 561 ± 208
tissue to tissue ratio at 24 h ([2]; tumour/muscle, 24 h p.i., read-out: Tumour/muscle): 239 ± 108
tissue to tissue ratio at 120 h ([2]; tumour/muscle, 120 h p.i., read-out: Tumour/muscle): 80.9 ± 28.1
excreta dose per gram or mL at 1 h ([2]; urine, 1 h p.i.): 110 ± 81.9 %ID/g
excreta dose per gram or mL at 4 h ([2]; urine, 4 h p.i.): 13.8 ± 10.2 %ID/g
excreta dose per gram or mL at 24 h ([2]; urine, 24 h p.i.): 1.99 ± 1.39 %ID/g
excreta dose per gram or mL at 120 h ([2]; urine, 120 h p.i.): 0.22 ± 0.05 %ID/g
SMILES: CCCC[C@H](NC(=O)CN1CCC(NC(=O)CN2CCN(CC(=O)O)CCN(CC(=O)O)CCN(CC(=O)O)CC2)CC1)C(=O)N[C@H]1CC(=O)NCCCC[C@@H](C(N)=O)NC(=O)[C@H](Cc2c[nH]c3ccccc23)NC(=O)[C@H](CCCNC(=N)N)NC(=O)[C@@H](Cc2ccccc2)NC(=O)[C@H](Cc2c[nH]cn2)NC1=O [^177Lu-labeled CCZ01048, metal not drawn, reference compound]

In vivo urine stability, intact tracer [1]: 92.5 ± 2.1%
SMILES: CCCC[C@H](NC(=O)CN1CCC(NC(=O)CN2CCN(CC(=O)O)CCN(CC(=O)O)CCN(CC(=O)O)CC2)CC1)C(=O)N[C@H]1CC(=O)NCCCC[C@@H](C(N)=O)NC(=O)[C@H](Cc2c[nH]c3ccccc23)N(C)C(=O)[C@H](CCCNC(=N)N)N(C)C(=O)[C@@H](Cc2ccccc2)NC(=O)[C@H](Cc2c[nH]cn2)NC1=O [[^68Ga]Ga-CCZ01104, metal not drawn]

The remaining lines, values behind:

SMILES: CCCC[C@H](NC(=O)CN1CCC(NC(=O)CN2CCN(CC(=O)O)CCN(CC(=O)O)CCN(CC(=O)O)CC2)CC1)C(=O)N[C@H]1CC(=O)NCCCC[C@@H](C(N)=O)N(C)C(=O)[C@H](Cc2c[nH]c3ccccc23)N(C)C(=O)[C@H](CCCNC(=N)N)NC(=O)[C@@H](Cc2ccccc2)NC(=O)[C@H](Cc2c[nH]cn2)NC1=O [[^68Ga]Ga-CCZ01105, metal not drawn]
In vivo urine stability, intact tracer [1]: 65.8 ± 2.9%

SMILES: CCCC[C@H](NC(=O)CN1CCC(NC(=O)[C@H](CCCCNC(=O)CN2CCN(CC(=O)O)CCN(CC(=O)O)CCN(CC(=O)O)CC2)NC(=O)CNC(=O)CCCc2ccc(C)cc2)CC1)C(=O)N[C@H]1CC(=O)NCCCC[C@@H](C(N)=O)N(C)C(=O)[C@H](Cc2c[nH]c3ccccc23)NC(=O)[C@H](CCCNC(=N)N)N(C)C(=O)[C@@H](Cc2ccccc2)NC(=O)[C@H](Cc2cnc[nH]2)NC1=O [CCZ01158]
Blood uptake in SPECT images (SK-MEL-1 human melanoma): Lower blood uptake was observed
Tumour uptake / retention in SPECT images (SK-MEL-1 human melanoma): showed improved the tumour retention

SMILES: CCCC[C@H](NC(=O)CN1CCC(NC(=O)CN2CCN(CC(=O)O)CCN(CC(=O)O)CCN(CC(=O)O)CC2)CC1)C(=O)N[C@H]1CC(=O)NCCCC[C@@H](C(N)=O)N(C)C(=O)[C@H](Cc2c[nH]c3ccccc23)N(C)C(=O)[C@H](CCCNC(=N)N)N(C)C(=O)[C@@H](Cc2ccccc2)NC(=O)[C@H](Cc2c[nH]cn2)NC1=O [[^68Ga]Ga-CCZ01103, metal not drawn]
In vivo urine stability, intact tracer [1]: 92.6 ± 1.6%

SMILES: CCCC[C@H](NC(=O)CN1CCC(NC(=O)CN2CCN(CC(=O)O)CCN(CC(=O)O)CCN(CC(=O)O)CC2)CC1)C(=O)N[C@H]1CC(=O)NCCCC[C@@H](C(N)=O)N(C)C(=O)[C@H](Cc2c[nH]c3ccccc23)NC(=O)[C@H](CCCNC(=N)N)N(C)C(=O)[C@@H](Cc2ccccc2)NC(=O)[C@H](Cc2c[nH]cn2)NC1=O [[^68Ga]Ga-CCZ01106] [metal not drawn]
In vivo urine stability, intact tracer [1]: 82.5 ± 1.8%
